Measured values: patent US20070009509A1, “Antibody against nox1 polypeptide, method of diagnosing cancer with the use of nox1 gene and method of screening cancer growth inhibitor” (priority 2003, published 2007)

Legend:
[1] = test system: Nox1 expression in the H-Ras-NIH3T3 cells; test: Control experiment: Nox1 expression in H-Ras-NIH3T3 cells; format: cell-based; conditions: wortmannin 100 nM; data not shown
[2] = test system: Nox1 expression in the K-Ras-NRK cells; test: Nox1 expression in K-Ras-NRK cells by real-time quantitative polymerase chain reaction; format: cell-based, rat; conditions: PD98059 20 μM, 100 μM, treated for 12 hours; FIG. 1(a)
Procedure: At first, rat kidney (NRK) cells and K-Ras-NRK cells (Kirstein murine sarcoma virus-transformed NRK cells) were prepared. The K-Ras-NRK cells were purchased from ATCC.
The presence or absence of Nox1 expression in the rat kidney (NRK) cells and the K-Ras-NRK cells was initially detected by real-time quantitative polymerase chain reaction. The real-time quantitative polymerase chain reaction used a forward primer of SEQ ID NO: 15, a reverse primer of SEQ ID NO: 16, and a TaqMan MGB probe of SEQ ID NO: 17.
The real-time quantitative polymerase chain reaction was performed using ABI Prism 7700 (Applied Biosystems) under reaction conditions set to defaults. Analytical values were standardized using rRNA 18S.
(§1) A series of experiments were performed for analyzing the downstream region of a Ras signaling pathway of Nox1 gene expression elevated by mutant Ras gene. In Examples 1 and 2, the cells were treated for 12 hours with PD98059 (PD: 20 μM, 100 μM), an MAPKK inhibitor, to analyze Nox1 expression in the K-Ras-NRK cells and serum- and EGF-induced Nox1 expression by real-time quantitative polymerase chain reaction.

[3] = test system: Nox1 gene expression in NIH3T3 cells; test: Serum- and EGF-induced Nox1 expression in NIH3T3 cells by real-time quantitative polymerase chain reaction; format: cell-based
Procedure: NIH3T3 cells cultured overnight under serum-free conditions were treated mitogeniclally with serum (30%) or 50 ng/ml epidermal growth factor (EGF) and then analyzed by real-time quantitative polymerase chain reaction. As a result, Nox1 gene expression was increased to 6 to 20 times within 12 hours from the initiation of the culture, as shown in FIGS. 1(c) and (d). That is, Nox1 gene expression is associated with factors that promote cell growth. This is consistent with the reports saying that both platelet-derived growth factor (PDGF) and angiotensin II induce superoxide formation and Nox1 gene expression in vascular smooth muscle cells (1 and 4).
as §1

[4] = test system: K-Ras-NRK cells; test: Morphology of K-Ras-NRK cells treated overnight with inhibitors; format: cell-based, rat; conditions: 20 μM DPI, 30 μM PD98059, 10 mM n-acetyl cysteine (data not shown), FIG. 13
Procedure: Diphenylene iodonium (DPI), a Nox1 inhibitor, was used to examine the influence of Nox1 gene expression on the morphologies of the cells transformed with mutant Ras. Namely, K-Ras-NRK cells and NRK cells were cultured overnight at 37° C. in a medium containing 20 μM DPI or 30 μM PD98059 under a 5% CO2-containing moisture environment to observe morphological changes.

[5] = test system: superoxide production in K-Ras-NRK cells; test: Superoxide production by NBT reduction analysis; format: cell-based, rat; conditions: 40 units of superoxide dismutase, 37° C., 8 minutes
Procedure: The present inventors measured superoxide production by NBT reduction analysis using the transformed cells of Example 4 in order to evaluate the role of Nox1 in superoxide production induced by mutant Ras. In the present example, the method of Suh et al. was used in the NBT (nitroblue tetrazolium) analysis (1). Namely, 0.2 ml of a Hanks solution containing 0.25% NBT was prepared with or without 40 units of superoxide dismutase (SOD), a reactive oxygen-digesting enzyme, in which 2×10^5 cells were in turn suspended and treated at 37° C. for 8 minutes. The treated cells were separated by low-speed centrifugation and solubilized by the addition of 0.5 ml of pyridine. Absorbance at 510 nm was measured to quantify a decrease in NBT (extinction coefficient of 11,000/M/cm). The obtained data was shown in FIG. 6 with +/−s.e.m. from 3 measurements.

COC[C@H]1OC(=O)c2coc3c2[C@@]1(C)C1=C(C3=O)[C@@H]2CCC(=O)[C@@]2(C)C[C@H]1OC(C)=O [wortmannin]
increase in Nox1 expression in the H-Ras-NIH3T3 cells [1]: did not inhibit

COc1cccc(-c2cc(=O)c3ccccc3o2)c1N [PD98059]
Nox1 expression in the K-Ras-NRK cells [2]: inhibited by the PD98059 concentration-dependently | EGF-induced Nox1 expression ([3]; 20 μM PD98059, 50 ng/ml EGF, FIG. 1(d)): inhibited | serum-induced Nox1 expression ([3]; 20 μM PD98059, serum (30%), FIG. 1(c)): inhibited | morphological changes of K-Ras-NRK cells [4]: such morphological changes were also observed

CC(=O)N[C@@H](CS)C(=O)O [n-acetyl cysteine]
morphological changes of K-Ras-NRK cells [4]: transiently assumed a flat shape that was close to the shape of the NRK cells

superoxide dismutase
NBT reduction increased in K-Ras-NRK and K-Ras-NRK/neg-1 [5]: inhibited

c1ccc2c(c1)[I+]c1ccccc1-2 [DPI, Diphenylene iodonium]
morphological changes of K-Ras-NRK cells [4]: transiently assumed a flat shape that was close to the shape of the NRK cells
